The text below walks through data of PubChem BioAssay (NCI).

Test systems include RXF 393 renal; KM12 colon; 786-0 renal; CCRF-CEM leukemia; PC-3 prostate; HCT-15 colon; COLO 205 colon; HL-60(TB) leukemia; BT-549 breast; SW-620 colon.
Common to all, as to test: NCI tumour cell line growth inhibition, 48 h

“And” between values parts separate entries of the source, which are not always exact repeats. Identical values can stand only once.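 Tested at 5 concentrations; 48 h exposure; 96-well plates; endpoints linearly interpolated, else capped at highest concentration. Abbreviation: GI50, concentration required for 50% inhibition of growth. At the TGI there is no net growth.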

Take `Clc1ccc2c(c1)N(c1ncnc3ccc(-c4cnc5[nH]ccc5c4)cc13)CC2`: the GI50 in the experiment on RXF 393 renal was 0.442 µM; in the experiment with KM12 colon it was 1.24 µM; with 786-0 renal it was 1.56 µM; in the experiment on CCRF-CEM leukemia it was 1.71 µM; in the experiment on PC-3 prostate it was 2.28 µM; in the experiment on HCT-15 colon, 1.06 µM. Besides, the GI50 in the experiment with COLO 205 colon was 3.21 µM; with HL-60(TB) leukemia, 1.26 µM; in the experiment with BT-549 breast, 0.949 µM; with SW-620 colon, 1.38 µM. In addition, the TGI is 12.2 µM in the experiment with RXF 393 renal; 18.6 µM with KM12 colon; 14.5 µM in the experiment on 786-0 renal; greater than 100 µM with CCRF-CEM leukemia; 23.6 µM in the experiment on PC-3 prostate; 12.5 µM in the experiment on HCT-15 colon. In addition, the TGI was greater than 100 µM in the experiment with COLO 205 colon, greater than 100 µM in the experiment with HL-60(TB) leukemia, 47.8 µM with BT-549 breast and 14.7 µM with SW-620 colon.

On to `COc1ccc2c(c1)[nH]c(=O)c1c3cc(OC)ccc3cn21`, for which the GI50 is less than 0.01 µM in the experiment on RXF 393 renal; less than 0.01 µM in the experiment on KM12 colon; 0.0453 µM in the experiment on 786-0 renal; less than 0.0132 µM in the experiment on CCRF-CEM leukemia; less than 0.0104 µM in the experiment with PC-3 prostate; less than 0.01 µM in the experiment with HCT-15 colon. The GI50 in the experiment with COLO 205 colon was 0.0274 µM; with HL-60(TB) leukemia, less than 0.01 µM; with BT-549 breast, less than 0.031 µM; with SW-620 colon it was less than 0.01 µM. Further, the TGI amounted to 0.274 µM in the experiment with RXF 393 renal; 0.393 µM in the experiment with KM12 colon; 1.56 µM in the experiment on 786-0 renal; 0.0751 µM in the experiment with CCRF-CEM leukemia; 1.52 µM in the experiment on PC-3 prostate; 0.653 µM in the experiment on HCT-15 colon. Moreover, the TGI was 0.0923 µM in the experiment on COLO 205 colon, less than 0.01 µM in the experiment with HL-60(TB) leukemia, 1.19 µM in the experiment with BT-549 breast and 1.31 µM in the experiment on SW-620 colon.

With `Clc1cccc(Cl)c1C1CSc2ccccc2N=C1c1ccccc1` (stereo unspecified), the GI50 was 9.74 µM in the experiment on RXF 393 renal; 2.15 µM in the experiment on KM12 colon; 10.7 µM with 786-0 renal; 3.44 µM in the experiment on CCRF-CEM leukemia; 5.6 µM in the experiment with PC-3 prostate; 1.66 µM in the experiment with HCT-15 colon. Besides, the GI50 in the experiment on COLO 205 colon is 12.3 µM; in the experiment with HL-60(TB) leukemia it was 8.2 µM; in the experiment on BT-549 breast, 5.19 µM; in the experiment on SW-620 colon it was 2.34 µM. Further, the TGI in the experiment on RXF 393 renal is 24.1 µM; in the experiment on KM12 colon it was 4.69 µM; with 786-0 renal, 23 µM; in the experiment on CCRF-CEM leukemia it was 34.8 µM; with PC-3 prostate, 20.9 µM; in the experiment on HCT-15 colon it was 3.98 µM. The TGI with COLO 205 colon was 33.5 µM; with HL-60(TB) leukemia it was 38.7 µM; in the experiment on BT-549 breast, 17.1 µM; with SW-620 colon it was 5.64 µM.

As for `C=CC(=O)NCc1cccc(Nc2ncc(Br)c(NCCCNC(=O)C3CCC3)n2)c1`, the GI50 in the experiment with RXF 393 renal is 0.166 µM and 0.123 µM; in the experiment with KM12 colon it was 0.806 µM and 0.861 µM; in the experiment with 786-0 renal, 1.29 µM and 1.26 µM; in the experiment with CCRF-CEM leukemia it was 0.707 µM and 0.454 µM; with PC-3 prostate, 1.55 µM and 0.933 µM; with HCT-15 colon it was 2.27 µM and 2.65 µM. In addition, the GI50 with COLO 205 colon was 0.403 µM; with HL-60(TB) leukemia, 0.821 µM and 0.893 µM; in the experiment on BT-549 breast it was 0.698 µM and 0.515 µM; in the experiment with SW-620 colon, 0.661 µM and 1.15 µM. Besides, the TGI in the experiment on RXF 393 renal was 0.844 µM and 0.468 µM; with KM12 colon it was 12.5 µM and > 25 µM; in the experiment on 786-0 renal it was 6.16 µM and > 25 µM; in the experiment on CCRF-CEM leukemia, 12.5 µM and > 25 µM; in the experiment with PC-3 prostate, 12.5 µM and 7.04 µM; in the experiment with HCT-15 colon, 12.5 µM and 13.2 µM. The TGI with COLO 205 colon was 2.01 µM; in the experiment on HL-60(TB) leukemia it was 5.96 µM and > 25 µM; with BT-549 breast it was 2.55 µM and 2.42 µM; in the experiment with SW-620 colon, 12.5 µM and 11.7 µM.

Turning to `Nc1nc2c(s1)CCc1c-2c(Br)n(Cc2ccccc2)c1Br`, the GI50 in the experiment on RXF 393 renal was 2.23 µM; in the experiment on KM12 colon it was 14 µM; in the experiment with 786-0 renal it was 7.11 µM; with CCRF-CEM leukemia, 0.534 µM; with PC-3 prostate, 12.8 µM; with HCT-15 colon, 3.98 µM. In addition, the GI50 is 2.53 µM in the experiment on COLO 205 colon, 5.64 µM with HL-60(TB) leukemia, 15.1 µM in the experiment with BT-549 breast and 3.31 µM with SW-620 colon. The TGI is 6.38 µM in the experiment on RXF 393 renal; 33.3 µM in the experiment with KM12 colon; 22.9 µM in the experiment with 786-0 renal; 11.9 µM in the experiment with CCRF-CEM leukemia; 45.5 µM with PC-3 prostate; 15.9 µM in the experiment on HCT-15 colon. For the same compound, the TGI in the experiment with COLO 205 colon was found to be 5.13 µM; in the experiment with HL-60(TB) leukemia it was 37.1 µM; in the experiment with BT-549 breast, 30.2 µM; in the experiment on SW-620 colon it was 9.74 µM.

Regarding `NC(=O)c1ccc(NN=O)nc1`, in the experiment with RXF 393 renal, the GI50 was greater than 100 µM. The TGI in the experiment on RXF 393 renal, in the experiment on KM12 colon, with 786-0 renal, in the experiment on CCRF-CEM leukemia, in the experiment on PC-3 prostate and with HCT-15 colon was greater than 100 µM throughout. Also, the TGI in the experiment on COLO 205 colon, in the experiment on HL-60(TB) leukemia, in the experiment with BT-549 breast and in the experiment on SW-620 colon was greater than 100 µM in each case.

Consider `C=CC(C1=CC(=O)C(OC)=CC1=O)c1ccccc1` (stereo unspecified), for which the TGI amounted to 29.2 µM with RXF 393 renal; 34.6 µM in the experiment with KM12 colon; 28.4 µM in the experiment with 786-0 renal; 6.77 µM with CCRF-CEM leukemia; 25.7 µM in the experiment with PC-3 prostate; 32 µM with HCT-15 colon. In addition, the TGI was determined as 36.6 µM with COLO 205 colon, 6.72 µM in the experiment with HL-60(TB) leukemia, 29.9 µM in the experiment with BT-549 breast and 48.6 µM with SW-620 colon.
